Here are results for eleven compounds from article PMC4556614 (PLoS ONE, 2015).

Each structure is given as a SMILES string.

Series [1] has as its target T1, OCT2 (Homo sapiens, UniProt O15244). Kind of series: Inhibition of OCT2-mediated [3H]MPP+ uptake in HEK-OCT2 cells. The conditions noted are these: for % Inhibition of OCT2-dependent MPP+ uptake at 20 µM (mean ± SEM): test drug 20 µM; for % Inhibition of OCT2-dependent MPP+ uptake at 20 µM (mean ± SEM) / % Inhibition of OCT2-dependent MPP+ uptake at 200 µM (mean ± SEM): MPP+ 50 μM, 3 min, net uptake HEK-OCT2 minus HEK-VC; for % Inhibition of OCT2-dependent MPP+ uptake at 200 µM (mean ± SEM): test drug 200 µM. On the procedure:
(§1) For the transport assays HEK cell lines stably transfected with human OCT2 (HEK-OCT2) or the vector only (HEK-VC) were used. The HEK-OCT2 cell line was established and characterized previously. HEK-OCT2 and HEK-VC cells were seeded in poly-D-lysine (Sigma Aldrich, Taufkirchen, Germany) coated 48-well-plates at a density of 1.2 x 10^5 cells/well. […] Uptake was stopped by washing the cells three times with ice-cold uptake buffer. Afterwards, cells were lysed with 5 mM Tris buffer (pH 7.3) containing 0.1% Triton X-100. The intracellular accumulation of radioactivity was determined by liquid scintillation counting (PerkinElmer, Rodgau-Jügesheim, Germany) and protein concentration of each lysate was measured with bicinchonic acid assay (BCA Protein Assay Kit, Thermo Fisher Scientific, Waltham, MA, USA). We performed two to eight experiments each on at least two separate days, i.e., n = 4–16.

Series [2] has as its target T1, OCT2. The series can be described thus: in vitro. As to conditions: human, pH 7.3. The method, then:
as §1
Experimental half-maximal inhibitory concentrations (IC50 values) were measured as the substrate uptake in the presence of increasing concentrations of test drugs. These experiments were performed as described above (three experiments each on two separate days, i.e., n = 6). IC50 values were calculated with GraphPad Prism 5.0 (GraphPad Software, San Diego, CA, USA). IC50 was estimated by a sigmoidal inhibition model and was fit to the equation V = V 0 / (1 + (I / IC50 ) ^n ) by nonlinear regression. V is the net uptake in the presence of the inhibitor, V 0 is the net uptake in the absence of the inhibitor, I is the concentration of the inhibitor and n is the slope.

What is called inhibition is the change of the read-out against control, counted positive when it falls.

T1 sequence (O15244 whole entry): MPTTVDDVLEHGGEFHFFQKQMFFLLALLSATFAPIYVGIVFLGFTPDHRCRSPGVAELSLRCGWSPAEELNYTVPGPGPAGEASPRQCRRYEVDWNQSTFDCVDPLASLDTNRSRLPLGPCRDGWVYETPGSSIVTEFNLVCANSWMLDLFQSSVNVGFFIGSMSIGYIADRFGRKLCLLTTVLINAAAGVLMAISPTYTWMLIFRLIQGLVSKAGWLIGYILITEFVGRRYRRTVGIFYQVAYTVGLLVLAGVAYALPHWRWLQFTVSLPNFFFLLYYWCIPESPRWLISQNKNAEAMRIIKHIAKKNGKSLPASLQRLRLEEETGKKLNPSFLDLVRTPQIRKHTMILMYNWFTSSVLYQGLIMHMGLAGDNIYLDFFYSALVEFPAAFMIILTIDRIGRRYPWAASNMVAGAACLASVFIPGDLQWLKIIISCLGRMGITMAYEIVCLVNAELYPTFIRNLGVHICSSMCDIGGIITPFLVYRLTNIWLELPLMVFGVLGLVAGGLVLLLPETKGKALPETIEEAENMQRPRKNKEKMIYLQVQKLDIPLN

In the case of `O=C(CCCN1CCC(n2c(O)nc3ccccc32)CC1)c1ccc(F)cc1` [Benperidol], at OCT2 [1], the “% Inhibition of OCT2-dependent MPP+ uptake at 20 µM (mean ± SEM)” value is -21.5 ± 2.8% and the “% Inhibition of OCT2-dependent MPP+ uptake at 200 µM (mean ± SEM)” value is 1.6 ± 8.3%. Further, at OCT2 [2], the “% Inhibition of OCT2-dependent MF uptake at 20 µM (mean ± SEM)” value turned out to be 58.7 ± 3.3% and the “% Inhibition of OCT2-dependent MF uptake at 200 µM (mean ± SEM)” value came to 72.2 ± 2.7%.
For `C#C[C@]1(O)CC[C@H]2[C@@H]3CCC4=CC(=O)CC[C@@H]4[C@H]3CC[C@@]21C` [Norethindrone], in that order: -29.4 ± 6.4%, 3.0 ± 3.3%, 41.0 ± 11.0 and 87.7 ± 6.1.
For `Cc1cccc(Nc2ccncc2S(=O)(=O)NC(=O)NC(C)C)c1` [Torasemide], in that order: -11.4 ± 2.3%, -40.3 ± 5.0%, -33.2 ± 5.0 and -19.5 ± 0.8.
For `NC(=O)N1c2ccccc2C=Cc2ccccc21` [Carbamazepine], in that order: -51.4 ± 9.2%, -2.1 ± 4.4%, 0.2 ± 3.8% and 83.8 ± 1.2%.
As to `CCOC(=O)C1=C(COCCN)NC(C)=C(C(=O)OC)C1c1ccccc1Cl` (centres unmarked) [Amlodipine], on OCT2 [1], the “% Inhibition of OCT2-dependent MPP+ uptake at 20 µM (mean ± SEM)” value is given as -13.8 ± 7.4% and the “% Inhibition of OCT2-dependent MPP+ uptake at 200 µM (mean ± SEM)” value turned out to be 39.3 ± 6.8%. At OCT2 [2], the “% Inhibition of OCT2-dependent MF uptake at 20 µM (mean ± SEM)” value is 21.9 ± 9.0% and the “% Inhibition of OCT2-dependent MF uptake at 200 µM (mean ± SEM)” value came out at 110.0 ± 17.3%.
Regarding `C#C[C@]1(O)CC[C@H]2[C@@H]3CCc4cc(O)ccc4[C@H]3CC[C@@]21C` [Ethinylestradiol], on OCT2 [1], the “% Inhibition of OCT2-dependent MPP+ uptake at 20 µM (mean ± SEM)” value is 14.0 ± 8.8% and the “% Inhibition of OCT2-dependent MPP+ uptake at 200 µM (mean ± SEM)” value amounted to 46.8 ± 6.3%. For the same compound, on OCT2 [2], the “% Inhibition of OCT2-dependent MF uptake at 20 µM (mean ± SEM)” value is 31.8 ± 8.1 and the “% Inhibition of OCT2-dependent MF uptake at 200 µM (mean ± SEM)” value turned out to be 62.2 ± 13.1.
For `Cc1cccc(C)c1NC(=O)c1cc(S(N)(=O)=O)c(Cl)cc1O` [Xipamide] the same measures were 10.5 ± 3.7%, 6.6 ± 9.3%, -22.3 ± 9.7 and 9.4 ± 9.2.
With `CCCCC(=O)N(Cc1ccc(-c2ccccc2-c2nnn[nH]2)cc1)[C@H](C(=O)O)C(C)C` [Valsartan], on OCT2 [1] (human, pH 7.3), the inhibition at 3 min, 20 µM is -77.2 ± 6% and the inhibition at 3 min, 200 µM is -82.1 ± 9.9%. In addition, on OCT2 [2], the inhibition at 3 min, 20 µM was -41.7 ± 1.8% and the inhibition at 3 min, 200 µM is -12.9 ± 3.6%.
Turning to `CNC(=C[N+](=O)[O-])NCCSCc1ccc(CN(C)C)o1` [Ranitidine], at OCT2 [1], the “% Inhibition of OCT2-dependent MPP+ uptake at 20 µM (mean ± SEM)” value is -7.9 ± 12.9% and the “% Inhibition of OCT2-dependent MPP+ uptake at 200 µM (mean ± SEM)” value came out at 11.6 ± 3.4%. At OCT2 [2], the “% Inhibition of OCT2-dependent MF uptake at 20 µM (mean ± SEM)” value is recorded as 65.2 ± 7.7 and the “% Inhibition of OCT2-dependent MF uptake at 200 µM (mean ± SEM)” value was found to be 91.5 ± 3.8.
With `Cc1c(N(C)CS(=O)(=O)O)c(=O)n(-c2ccccc2)n1C` [Metamizole], at OCT2 [1], the “% Inhibition of OCT2-dependent MPP+ uptake at 20 µM (mean ± SEM)” value is recorded as -31.6 ± 6.0% and the “% Inhibition of OCT2-dependent MPP+ uptake at 200 µM (mean ± SEM)” value is -39.1 ± 5.1%. In addition, at OCT2 [2], the “% Inhibition of OCT2-dependent MF uptake at 20 µM (mean ± SEM)” value is reported as -4.8 ± 6.4 and the “% Inhibition of OCT2-dependent MF uptake at 200 µM (mean ± SEM)” value came out at 8.4 ± 9.8.
For `CO/N=C(\C(=O)N[C@@H]1C(=O)N2C(C(=O)O)=C(COC(N)=O)CS[C@H]12)c1ccco1` [Cefuroxime], in that order: -10.5 ± 7.0%, -30.8 ± 12.9%, 29.9 ± 9.7% and 50.3 ± 11.6%.
